Assay results taken from patent US20230407373A1 (priority 2020, published 2023).
“Also recorded” adds a separate entry of the source. Where two headings read alike, the source gives them in different places.

Columns and labels:
Format in all cases: binding
HCoV-OC43 gRNA and sgRNA = conditions: for target (unweighted spectral count, OC43 Probe II capture) / target (spectral count) / background (spectral count): 36 hpi; for target (unweighted spectral count, OC43 Probe II capture): type n_36_v, FDR<10%; for target (unweighted spectral count, OC43 Probe II capture) / target (unweighted spectral count): tested against no-probe control; for target (unweighted spectral count): OC43 Probe II, infected cells; for target (unweighted spectral count, OC43 Probe II) / background (unweighted spectral count, no-probe control): type n_48_v, 48 hpi; for target (unweighted spectral count, OC43 Probe II): OC43 Probe II capture on infected cells; for background (unweighted spectral count, no-probe control): no-probe control on infected cells; for target (spectral count) / background (spectral count): type s_36_m, Probe II; for target (spectral count): HCoV-OC43-infected HCT-8 cells; for background (spectral count): uninfected-probe control
[1] = system: SARS-CoV-2 gRNA and sgRNAs; conditions: for background (unweighted spectral count in control): no-probe control pull-down, used as background for Probe II; for target (unweighted spectral count of the protein in the RNP capture experiment): LC-MS/MS label-free quantification, probe pool not given; for back-ground (unweighted spectral count of the protein in the control experiment): protein background of the control (e.g. no-probe) experiment; for target (unweighted spectral count in RNP capture): Probe II capture, LC-MS/MS LFQ
gRNA of HCoV-OC43 = conditions: for target (spectral count) / background (spectral count): type g_36_m, 36 hpi, Probe I; for target (spectral count): HCoV-OC43-infected HCT-8 cells; for background (spectral count): uninfected-probe control; for target (spectral count, OC43 Probe I RNP capture) / background (spectral count, no-probe control): type n_48_v: 48 hours post-infection; for target (spectral count, OC43 Probe I RNP capture): infected cells, unweighted spectral count; for background (spectral count, no-probe control): no-probe control on infected cells
SARS-CoV-2 gRNA = conditions: for target (unweighted spectral count of the protein in the RNP capture): LC-MS/MS, Probe I sample (first 199 lines of Table 2)

Substance | target (unweighted spectral count, OC43 Probe II capture) (HCoV-OC43 gRNA and sgRNA) | target (unweighted spectral count) (HCoV-OC43 gRNA and sgRNA; 12 hpi (type n_12_v)) | target (unweighted spectral count) (HCoV-OC43 gRNA and sgRNA; 24 hpi (type n_24_v)) | target (unweighted spectral count, OC43 Probe II) (HCoV-OC43 gRNA and sgRNA) | background (unweighted spectral count, no-probe control) (HCoV-OC43 gRNA and sgRNA) | target (spectral count) (HCoV-OC43 gRNA and sgRNA) | background (spectral count) (HCoV-OC43 gRNA and sgRNA) | enrichment in SARS-CoV-2 Probe II RNP capture [1] | target (spectral count) (gRNA of HCoV-OC43) | background (spectral count) (gRNA of HCoV-OC43) | target (spectral count, OC43 Probe I RNP capture) (gRNA of HCoV-OC43) | background (spectral count, no-probe control) (gRNA of HCoV-OC43) | enrichment in SARS-CoV-2 Probe I RNP capture (SARS-CoV-2 gRNA) | target (unweighted spectral count of the protein in the RNP capture) (SARS-CoV-2 gRNA) | background (unweighted spectral count in control) [1] | target (unweighted spectral count of the protein in the RNP capture experiment) [1] | back-ground (unweighted spectral count of the protein in the control experiment) [1] | target (unweighted spectral count in RNP capture) [1]
PABPC1: host protein, UniProt P11940 | 23 | 7 | 18 | 26 | 2 | 29 | 3 | enriched; also recorded: found in the SARS-CoV-2 experiments | 22 | 1 | 23 | 2 | enriched; also recorded: found in the SARS-CoV-2 experiments | 29 |  |  |  | 
PCBP1 | 16 | 8 | 8 |  |  |  |  |  |  |  |  |  |  | 12 | 2 |  |  | 
ILF2: host protein, UniProt Q12905 | 15 | 4 | 7 | 17 | 3 |  |  |  | 16 | 2 | 14 | 3 |  | 12 |  | 5 | 1 | 
SAFB2 | 5 |  |  | 7 | 1 |  |  |  |  |  | 9 | 1 |  | 8 |  | 6 | 1 | 
PTBP3: host protein, UniProt O95758 | 8 |  | 7 | 12 | 2 | 8 | 1 | found in the SARS-CoV-2 experiments | 11 | 1 | 14 | 2 | found in the SARS-CoV-2 experiments | 23 | 1 |  |  | 
FXR1 | 5 |  |  | 9 | 1 |  |  |  |  |  |  |  |  | 9 | 1 |  |  | 47
TARDBP | 19 | 10 | 20 | 22 | 3 |  |  |  |  |  | 28 | 3 |  | 28 | 1 |  |  | 30
DHX9: host protein, UniProt Q08211 |  |  | 13 | 31 | 4 | 27 | 3 |  |  |  | 24 | 4 |  | 15 | 1 |  |  | 11
HNRNPAB | 21 | 10 |  | 27 | 2 |  |  |  |  |  | 37 | 2 |  | 44 | 1 |  |  | 44
ELAVL1: host protein, UniProt Q15717 | 40 | 9 | 17 | 36 | 2 | 40 | 7 | found in the SARS-CoV-2 experiments | 38 | 6 | 50 | 2 | found in the SARS-CoV-2 experiments | 77 | 1 |  |  | 74
